According to ChEMBL document CHEMBL1201862, “PubChem BioAssay data set” (2004):
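A five-concentration, 48-hour dose response in 96-well plates underlies each endpoint, interpolated linearly between surrounding concentrations. Here, GI50 denotes the concentration required for 50% inhibition of growth.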 The source made the active and inactive calls. Cut-off read from the data, not from the text of the source: active = GI50 up to about 1.1 µM and inactive = higher.

Assays:
Test in all cases: NCI-60 cell line screen, 48 h
A498 = test system: A498
CCRF-CEM = test system: CCRF-CEM
HOP-62 = test system: HOP-62
HOP-92 = test system: HOP-92
HT-29 = test system: HT-29
IGROV-1 = test system: IGROV-1
K562 = test system: K562
M14 = test system: M14
MCF7 = test system: MCF7
MDA-MB-231 = test system: MDA-MB-231
Malme-3M = test system: Malme-3M
NCI-H226 = test system: NCI-H226
PC-3 = test system: PC-3
SF-539 = test system: SF-539
SK-MEL-2 = test system: SK-MEL-2
SR = test system: SR
SW-620 = test system: SW-620
UO-31 = test system: UO-31
MDA-N = test system: MDA-N

Row | Compound | GI50 (A498) | GI50 (CCRF-CEM) | GI50 (HOP-62) | GI50 (HOP-92) | GI50 (HT-29) | GI50 (IGROV-1) | GI50 (K562) | GI50 (M14) | GI50 (MCF7) | GI50 (MDA-MB-231) | GI50 (Malme-3M) | GI50 (NCI-H226) | GI50 (PC-3) | GI50 (SF-539) | GI50 (SK-MEL-2) | GI50 (SR) | GI50 (SW-620) | GI50 (UO-31) | GI50 (MDA-N)
1 | O=CC1C(Cl)=Nc2nc3ccccc3n2C1c1ccccc1 (stereo unspecified) | 3.01 µM (inactive) | 12.4 µM (inactive) | 18.1 µM (inactive) | 10.4 µM (inactive) | 19.1 µM (inactive) | 15.9 µM (inactive) | 15.2 µM (inactive) | 23.7 µM (inactive) | 20.4 µM (inactive) | 17.1 µM (inactive) | 23.9 µM (inactive) | 20.2 µM (inactive) | 17.3 µM (inactive) | 18.1 µM (inactive) | 12 µM (inactive) | 0.861 µM (active) | 19.4 µM (inactive) | 14.7 µM (inactive) | 
2 | Sc1nnc(/C=C/c2ccc(Cl)c(Cl)c2)[nH]1 | 53.8 µM (inactive) | > 100 µM (inactive) | 41.4 µM (inactive) |  | > 100 µM (inactive) | > 100 µM (inactive) | > 100 µM (inactive) |  |  |  | > 100 µM (inactive) | > 100 µM (inactive) |  | > 100 µM (inactive) | > 100 µM (inactive) |  | > 100 µM (inactive) | 71.3 µM (inactive) | 
3 | COc1ccc([C@@]23OC[C@@H]4[C@@H](OC[C@@H]42)c2cc(OC)c(OC)cc23)cc1OC | > 100 µM (inactive) |  | > 100 µM (inactive) |  |  | > 100 µM (inactive) | > 100 µM (inactive) | > 100 µM (inactive) | > 100 µM (inactive) | > 100 µM (inactive) | > 100 µM (inactive) | > 100 µM (inactive) | > 100 µM (inactive) | > 100 µM (inactive) | > 100 µM (inactive) | > 100 µM (inactive) | > 100 µM (inactive) | > 100 µM (inactive) | 
4 | CN(C)CCCSc1nc2ccccc2[nH]1 | > 100 µM (inactive) |  | > 100 µM (inactive) | > 100 µM (inactive) | > 100 µM (inactive) | > 100 µM (inactive) | > 100 µM (inactive) | > 100 µM (inactive) | > 100 µM (inactive) | > 100 µM (inactive) | > 100 µM (inactive) | > 100 µM (inactive) |  |  | > 100 µM (inactive) | > 100 µM (inactive) | > 100 µM (inactive) | > 100 µM (inactive) | > 100 µM (inactive)
5 | CN(C)c1ccc([S+]([O-])Nc2ccccc2)cc1 (stereo unspecified) |  | > 100 µM (inactive) | 56 µM (inactive) |  | 76.4 µM (inactive) | 30 µM (inactive) | 28.1 µM (inactive) | 38.5 µM (inactive) | 29.4 µM (inactive) | 33.3 µM (inactive) | 49.8 µM (inactive) | 38.4 µM (inactive) |  | > 100 µM (inactive) | 35.8 µM (inactive) | 31.6 µM (inactive) | 51.2 µM (inactive) | 11.1 µM (inactive) | 
6 | COC1(C2c3ccccc3CCN2C(=O)OC(C)(C)C)C(=O)C(c2ccccc2)=C1N(C)C (stereo unspecified) | 25.4 µM (inactive) | 38.9 µM (inactive) | 37 µM (inactive) | 44.8 µM (inactive) | 18.1 µM (inactive) |  |  | 27.3 µM (inactive) | 44.8 µM (inactive) |  | 35.2 µM (inactive) | 19.7 µM (inactive) | 25.2 µM (inactive) | 19.1 µM (inactive) | 27.3 µM (inactive) | 79.3 µM (inactive) | 37.8 µM (inactive) | 26.8 µM (inactive) | 21.5 µM (inactive)
7 | CCN(CC)CCNC(=O)c1cc2cc(NC(=O)c3cc4cc(N)ccc4[nH]3)ccc2[nH]1 | > 100 µM (inactive) | 9.53 µM (inactive) | 55 µM (inactive) | 24 µM (inactive) | 30.6 µM (inactive) |  | 18.6 µM (inactive) | 26.1 µM (inactive) | 15.1 µM (inactive) | 25.4 µM (inactive) |  |  |  | 31.1 µM (inactive) | 29.1 µM (inactive) | 5.9 µM (inactive) | 33.3 µM (inactive) | > 100 µM (inactive) | 33.9 µM (inactive)
8 | COc1ccc(C2=C(Cl)C(=O)O/C2=C\c2ccc(OC)c(Br)c2)cc1Cl | 17.3 µM (inactive) | 28.1 µM (inactive) | 14.6 µM (inactive) | 24 µM (inactive) | > 100 µM (inactive) | 33.7 µM (inactive) | 35.2 µM (inactive) | 70.8 µM (inactive) | 14.6 µM (inactive) |  | 54 µM (inactive) |  | 39.1 µM (inactive) | 16.1 µM (inactive) | 25.2 µM (inactive) | 51.8 µM (inactive) | > 100 µM (inactive) | 53.1 µM (inactive) | > 100 µM (inactive)
9 | N#CC(=N)c1ncn(CCO)c1NC(=O)C(F)(F)F | > 100 µM (inactive) | > 100 µM (inactive) | > 100 µM (inactive) |  | > 100 µM (inactive) | > 100 µM (inactive) | > 100 µM (inactive) | > 100 µM (inactive) |  | > 100 µM (inactive) | > 100 µM (inactive) | > 100 µM (inactive) | > 100 µM (inactive) | > 100 µM (inactive) | > 100 µM (inactive) | > 100 µM (inactive) | > 100 µM (inactive) |  | > 100 µM (inactive)
10 | COC(=O)/C1=C/C2CC(/C=C(/c3ccccc3)C(=O)O1)C2 |  | 19.5 µM (inactive) | 44.2 µM (inactive) |  | 26.9 µM (inactive) | 42.4 µM (inactive) | 27.8 µM (inactive) | 29.2 µM (inactive) |  |  | 12.1 µM (inactive) | 20.4 µM (inactive) |  | 33.3 µM (inactive) |  |  | 33.7 µM (inactive) | 32.9 µM (inactive) | 
11 | Cn1c(=O)c2c(nc3n2CCC(=O)N3CCCCl)n(C)c1=O | > 100 µM (inactive) | > 100 µM (inactive) | > 100 µM (inactive) | > 100 µM (inactive) | > 100 µM (inactive) | > 100 µM (inactive) | > 100 µM (inactive) | > 100 µM (inactive) |  | > 100 µM (inactive) |  | > 100 µM (inactive) | > 100 µM (inactive) |  | > 100 µM (inactive) | > 100 µM (inactive) | > 100 µM (inactive) | > 100 µM (inactive) | > 100 µM (inactive)
12 | O=c1[nH]c(=O)n(COCc2ccccc2)c2ccc(Br)cc12 | > 100 µM (inactive) | > 100 µM (inactive) |  | > 100 µM (inactive) | > 100 µM (inactive) | > 100 µM (inactive) | > 100 µM (inactive) | > 100 µM (inactive) | > 100 µM (inactive) | > 100 µM (inactive) |  | 36.3 µM (inactive) |  | > 100 µM (inactive) | > 100 µM (inactive) | > 100 µM (inactive) | > 100 µM (inactive) | > 100 µM (inactive) | > 100 µM (inactive)
13 | CC(=O)O[C@H]1C[C@]2(O)[C@@H]3CC[C@@H]4C[C@@H](O)CC[C@]4(C)[C@H]3CC[C@]2(C)[C@H]1C1=CC(=O)OC1 | 0.0977 µM (active) | 0.0375 µM (active) | 0.0493 µM (active) | 0.192 µM (active) | 0.0986 µM (active) | 0.103 µM (active) | 0.103 µM (active) | 0.172 µM (active) |  | 0.404 µM (active) | 0.036 µM (active) | 0.288 µM (active) | 0.0662 µM (active) | 0.0299 µM (active) | 0.218 µM (active) | 0.0315 µM (active) | 0.125 µM (active) | 0.0632 µM (active) | 0.0867 µM (active)
